What was measured:
[1] = adrenalin alone 30 μg/kg intramuscular, anesthetized rabbits
[2] = adrenalin alone 30 μg/kg intramuscular, anesthetized rabbits; remark: listed apart in the source
[3] = in animals as well as in humans; cited from earlier work

## CNC[C@H](O)c1ccc(O)c(O)c1 [adrenalin]
[1]
  AUC of second plasma adrenalin peak relative to the first one: about 20 times
  time of first narrow peak in plasma adrenalin level: a few minutes following the injection
[1]; later than first peak
  time of second, much larger peak in plasma adrenalin level: 20 min
[2]
  hypertensive episodes: two hypertensive episodes occurred at the times of the plasma adrenalin peaks
[3]
  delay of the bulk of the increase in plasma levels of adrenalin after injection: about 20 minutes

— patent publication US10952987B2 (BIOPROJET, priority 2012, dated 2021)
